Values of other authors in patent US20210061712A1, “COMPOSITE STRUCTURAL MATERIAL COMPOSITIONS RESISTANT TO BIODEGRADATION” (The University of British Columbia, priority 2018, published 2021).
Read-outs that look alike come from different tables or passages of the source.

Experiments:
[1] = system: Desulfovibrio desulfricans strain; conditions: pipe's internal wall coated with the oxide in epoxy

[Na+].[Na+].[O]=[W](=[O])([O-])[O-] [sodium tungstate]
growth of A. thiooxidans cells (A. Thiooxidans cells): completely inhibits the growth

[Zn+2] [Zn]
activity of SRB species (SRB species; 20 mg/L): reduced

O=CCCCC=O [glutaraldehyde]
activity of SRB species (SRB species; 10 mg/L): reduced

[Cu+2] [Cu]
activity of SRB species (SRB species; 20 mg/L): reduced

silver oxide
bacterial corrosion of concrete pipe [1]: reduce the bacterial corrosion
